Consider 15 compounds from patent US20260108546A1 (ELI LILLY AND COMPANY, priority 2024, published 2026).

Structures are written as SMILES.

The experiment concerns the target T1, hGIP-R (Homo sapiens, UniProt P48546).
T1 construct: expressed in transfected cells; host or cells: HEK-293 clonal cell lines
T1 sequence (P48546 22-466): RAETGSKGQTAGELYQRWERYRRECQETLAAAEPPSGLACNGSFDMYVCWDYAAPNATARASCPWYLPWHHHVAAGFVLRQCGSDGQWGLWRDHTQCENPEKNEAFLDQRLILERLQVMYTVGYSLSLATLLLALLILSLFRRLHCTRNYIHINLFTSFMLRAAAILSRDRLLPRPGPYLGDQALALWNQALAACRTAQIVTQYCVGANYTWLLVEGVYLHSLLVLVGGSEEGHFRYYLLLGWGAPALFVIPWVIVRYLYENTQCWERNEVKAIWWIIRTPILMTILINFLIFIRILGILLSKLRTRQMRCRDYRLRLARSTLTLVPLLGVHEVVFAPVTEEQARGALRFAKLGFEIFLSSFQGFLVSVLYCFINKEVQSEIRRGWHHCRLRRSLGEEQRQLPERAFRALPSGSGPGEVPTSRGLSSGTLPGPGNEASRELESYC
As to the kind of experiment: Functional hGIP-R Assay (cAMP formation, HTRF). It counts as cell-based. The note with it: for Emax: cAMP efficacy, percent of maximal response to GIP(1-42)OH, 37° C., 0.1% bovine casein, arithmetic mean ± SEM; for EC50: cAMP potency, HEK-293 cells expressing hGIP-R, incubated at 37° C. in the presence of 0.1% bovine casein, geometric mean, read-out: Human GIP-R EC50, nM (SEM, n). The essentials: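 HEK-293 cells expressing hGIP-R were given a 20-point compound series in DMEM with 0.1% casein, 250 μM IBMX, 1% DMSO, 30 min at 37 °C. cAMP was read by HTRF against a standard curve, expressed as % of human GIP (1-42) OH maximum; EC50 and Emax came from four-parameter fits.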

Usually Emax stands for the greatest response seen or fitted, relative to the assay's reference. For orientation: EC50 means the concentration at which the effect is half-maximal. For `COC(=O)c1cc(C(F)(F)F)nn1CC(C)(C)NC(=O)[C@@H](Cc1cnn(C)c1)NC(=O)[C@H]1C[C@@H]1c1ccc(-c2cnc3nc(C(F)(F)F)cn3c2)cc1` [Example 24, Methyl 1-(2-methyl-2-((R)-3-(1-methyl-1H-pyrazol-4-yl)-2-((15,2S)-2-(4-(2-(trifluoromethyl)imidazo [1,2-a]pyrimidin-6-yl)phenyl)cyclopropane-1-carboxamido)propanamido)propyl)-3-(trifluoromethyl)-1H-pyrazole-5-carboxylate], the Emax worked out at 133 ± 0.579% and the EC50 worked out at 15.8 nM.
The corresponding values for `Cn1cc(C[C@@H](NC(=O)[C@H]2C[C@@H]2c2ccc(-c3cnc4nc(C(F)(F)F)cn4c3)cc2)C(=O)NC(C)(C)Cn2nc(C(F)(F)F)cc2-c2nnc[nH]2)cn1` [Example 25, (1S,2S)-N-((R)-1-((1-(5-(4H-1,2,4-Triazol-3-yl)-3-(trifluoromethyl)-1H-pyrazol-1-yl)-2-methylpropan-2-yl)amino)-3-(1-methyl-1H-pyrazol-4-yl)-1-oxopropan-2-yl)-2-(4-(2-(trifluoromethyl)imidazo [1,2-a]pyrimidin-6-yl)phenyl) cyclopropane-1-carboxamide] are 142 ± 17.3% and 82.7 nM.
The corresponding values for `Cn1cc(C[C@@H](NC(=O)[C@H]2C[C@@H]2c2ccc(-c3cnc4nc(C(F)(F)F)cn4c3)cc2)C(=O)NC(C)(C)Cn2nc(C(F)(F)F)cc2-c2cn[nH]n2)cn1` [Example 26, (1S,2S)-N-((R)-1-((1-(5-(2H-1,2,3-Triazol-4-yl)-3-(trifluoromethyl)-1H-pyrazol-1-yl)-2-methylpropan-2-yl)amino)-3-(1-methyl-1H-pyrazol-4-yl)-1-oxopropan-2-yl)-2-(4-(2-(trifluoromethyl)imidazo [1,2-a]pyrimidin-6-yl)phenyl) cyclopropane-1-carboxamide] are 132 ± 15.5% and 17.4 nM.
In the same order, the values of `Cn1cc(C[C@@H](NC(=O)[C@H]2C[C@@H]2c2ccc(-c3cnc4nccn4c3)cc2)C(=O)NC(C)(C)Cn2nc(C(F)(F)F)cc2-c2cn[nH]n2)cn1` [Example 27, (1S,2S)-N-((R)-1-((1-(5-(2H-1,2,3-Triazol-4-yl)-3-(trifluoromethyl)-1H-pyrazol-1-yl)-2-methylpropan-2-yl)amino)-3-(1-methyl-1H-pyrazol-4-yl)-1-oxopropan-2-yl)-2-(4-(imidazo[1,2-a]pyrimidin-6-yl)phenyl) cyclopropane-1-carboxamide] are 99.3% and 61.6 nM.
Take `Cn1cc(C[C@@H](NC(=O)[C@H]2C[C@@H]2c2ccc(-c3cnc4nccn4c3)cc2)C(=O)NC(C)(C)Cn2nc(C(F)(F)F)cc2-c2cnn(C)c2)cn1` [Example 28, (1S,2S)-2-(4-(Imidazo[1,2-a]pyrimidin-6-yl)phenyl)-N-((R)-1-((2-methyl-1-(1′-methyl-5-(trifluoromethyl)-1′H,2H-[3,4′-bipyrazol]-2-yl)propan-2-yl)amino)-3-(1-methyl-1H-pyrazol-4-yl)-1-oxopropan-2-yl)cyclopropane-1-carboxamide]: the Emax is 91.9 ± 0.597% and the EC50 stood at 20.5 nM.
In the same order, the values of `CN(C(=O)[C@H]1C[C@@H]1c1ccc(-c2cnc3nn(C)cc3c2)cc1)[C@H](Cc1cnn(C)c1)C(=O)NC(C)(C)Cn1nc(C(F)(F)F)cc1-c1n[nH]c(=O)s1` [Example 30, (1S,2S)-N-Methyl-N-((R)-1-((2-methyl-1-(5-(5-oxo-4,5-dihydro-1,3,4-thiadiazol-2-yl)-3-(trifluoromethyl)-1H-pyrazol-1-yl)propan-2-yl)amino)-3-(1-methyl-1H-pyrazol-4-yl)-1-oxopropan-2-yl)-2-(4-(2-methyl-2H-pyrazolo[3,4-b]pyridin-5-yl)phenyl) cyclopropane-1-carboxamide] are 95.2 ± 0.936% and 198 nM.
In the same order, the values of `CN(C(=O)[C@H]1C[C@@H]1c1ccc(-c2cnc3nn(C)cc3c2)cc1)[C@H](Cc1cnn(C)c1)C(=O)NC(C)(C)Cn1nc(C(F)(F)F)cc1-c1ccc(=O)n(C)c1` [Example 31, (1S,2S)-N-Methyl-N-((R)-1-((2-methyl-1-(5-(1-methyl-6-oxo-1,6-dihydropyridin-3-yl)-3-(trifluoromethyl)-1H-pyrazol-1-yl)propan-2-yl)amino)-3-(1-methyl-1H-pyrazol-4-yl)-1-oxopropan-2-yl)-2-(4-(2-methyl-2H-pyrazolo[3,4-b]pyridin-5-yl)phenyl) cyclopropane-1-carboxamide] are 117 ± 4.92% and 152 nM.
The corresponding values for `CN(C(=O)[C@H]1C[C@@H]1c1ccc(-c2cnc3nn(C)cc3c2)cc1)[C@H](Cc1cnn(C)c1)C(=O)NC(C)(C)Cn1nc(C(F)(F)F)cc1-c1ccc[nH]c1=O` [Example 32, (1S,2S)-N-Methyl-N-((R)-1-((2-methyl-1-(5-(2-oxo-1,2-dihydropyridin-3-yl)-3-(trifluoromethyl)-1H-pyrazol-1-yl)propan-2-yl)amino)-3-(1-methyl-1H-pyrazol-4-yl)-1-oxopropan-2-yl)-2-(4-(2-methyl-2H-pyrazolo[3,4-b]pyridin-5-yl)phenyl) cyclopropane-1-carboxamide] are 119% and 93.5 nM.
As to `CN(C(=O)[C@H]1C[C@@H]1c1ccc(-c2cnc3nn(C)cc3c2)cc1)[C@H](Cc1cnn(C)c1)C(=O)NC(C)(C)Cn1nc(C(F)(F)F)cc1-c1cccc(=O)[nH]1` [Example 33, (1S,2S)-N-Methyl-N-((R)-1-((2-methyl-1-(5-(6-oxo-1,6-dihydropyridin-2-yl)-3-(trifluoromethyl)-1H-pyrazol-1-yl)propan-2-yl)amino)-3-(1-methyl-1H-pyrazol-4-yl)-1-oxopropan-2-yl)-2-(4-(2-methyl-2H-pyrazolo[3,4-b]pyridin-5-yl)phenyl) cyclopropane-1-carboxamide], the Emax was 108% and the EC50 is 133 nM.
In the same order, the values of `CN(C(=O)[C@H]1C[C@@H]1c1ccc(-c2cnc3nccn3c2)cc1)[C@H](Cc1cnn(C)c1)C(=O)NC(C)(C)Cn1nc(C(F)(F)F)cc1-c1ccc(=O)n(C)c1` [Example 34, (1S,2S)-2-(4-(imidazo[1,2-a]pyrimidin-6-yl)phenyl)-N-methyl-N-((R)-1-((2-methyl-1-(5-(1-methyl-6-oxo-1,6-dihydropyridin-3-yl)-3-(trifluoromethyl)-1H-pyrazol-1-yl)propan-2-yl)amino)-3-(1-methyl-1H-pyrazol-4-yl)-1-oxopropan-2-yl)cyclopropane-1-carboxamide] are 113 ± 12.3% and 183 nM.
In the same order, the values of `CN(C(=O)[C@H]1C[C@@H]1c1ccc(NC(=O)C2CCC(F)(F)CC2)cc1)[C@H](Cc1cnn(C)c1)C(=O)NC(C)(C)Cn1nc(C(F)(F)F)cc1-c1ccc(=O)n(C)c1` [Example 35, 4,4-Difluoro-N-(4-((1S,2S)-2-(methyl((R)-1-((2-methyl-1-(5-(1-methyl-6-oxo-1,6-dihydropyridin-3-yl)-3-(trifluoromethyl)-1H-pyrazol-1-yl)propan-2-yl)amino)-3-(1-methyl-1H-pyrazol-4-yl)-1-oxopropan-2-yl)carbamoyl)cyclopropyl)phenyl)cyclohexane-1-carboxamide] are 75 ± 4.1% and 135 nM.
For the compound `CN(C(=O)[C@H]1C[C@@H]1c1ccc(NC(=O)Nc2ccc(F)cc2)cc1)[C@H](Cc1cnn(C)c1)C(=O)NC(C)(C)Cc1ccc(F)cc1` [Example 36, (1S,2S)-N-((R)-1-((1-(4-Fluorophenyl)-2-methylpropan-2-yl)amino)-3-(1-methyl-1H-pyrazol-4-yl)-1-oxopropan-2-yl)-2-(4-(3-(4-fluorophenyl)ureido)phenyl)-N-methylcyclopropane-1-carboxamide], the Emax was found to be 94 ± 11.1% and the EC50 was 104 nM.
The corresponding values for `Cn1cc2cc(-c3ccc([C@H]4C[C@@H]4C(=O)N[C@H](Cc4cnc5ncccn45)C(=O)NC(C)(C)Cn4nc(C(F)(F)F)cc4C4CC4)cc3)cnc2n1` [Example 37, (1S,2S)-N-((R)-1-((1-(5-Cyclopropyl-3-(trifluoromethyl)-1H-pyrazol-1-yl)-2-methylpropan-2-yl)amino)-3-(imidazo[1,2-a]pyrimidin-3-yl)-1-oxopropan-2-yl)-2-(4-(2-methyl-2H-pyrazolo[3,4-b]pyridin-5-yl)phenyl) cyclopropane-1-carboxamide] are 77.4 ± 5.92% and 10.8 nM.
The corresponding values for `Cn1cc(-c2cc(C(F)(F)F)nn2CC(C)(C)NC(=O)[C@@H](Cc2cnc3ncccn23)NC(=O)[C@H]2C[C@@H]2c2ccc(-c3cnc4nccn4c3)cc2)cn1` [Example 38] are 92.1% and 7.93 nM.
In the same order, the values of `CC(C)(Cn1ccc(C(F)(F)F)n1)NC(=O)[C@@H](Cc1cnc2ncccn12)NC(=O)[C@H]1C[C@@H]1c1ccc(-c2cnc3nccn3c2)cc1` [Example 39, (1S,2S)-N-((R)-3-(Imidazo[1,2-a]pyrimidin-3-yl)-1-((2-methyl-1-(3-(trifluoromethyl)-1H-pyrazol-1-yl)propan-2-yl)amino)-1-oxopropan-2-yl)-2-(4-(imidazo[1,2-a]pyrimidin-6-yl)phenyl) cyclopropane-1-carboxamide] are 77.8 ± 2.57% and 63.1 nM.
